# Source: ChEMBL document CHEMBL3507680, “University of Dundee, Gates Library screen for HepG2 cell viability”
# Assay: Human HepG2 cell viability assay in 384 well format
# Assay type: toxicity, cell-based
# Design: dose 125 nL, time 70.5 hour; cytotoxicity at 70.5 h: concentration not given beside the values
# Conditions: HepG2 cells, read-out: Inhibition
row,Structure (SMILES),cytotoxicity at 70.5 h
1,O=C(Nc1cccnc1)C1CCCN(c2cc(-n3cccn3)ncn2)C1 (stereo not drawn),4.07%
2,CC(NC(=O)CCN1CCOC1=O)(c1ccccc1)c1ccccc1,0.0243%
3,COc1ccc(CCC(=O)NCCC2CCCO2)cc1Br (stereo not drawn),-7.13%
4,O=C(Cn1ccc(=O)[nH]c1=O)NCC1Cc2ccccc2O1 (stereo not drawn),-11.6%
5,O=C(c1ccncc1F)N1Cc2nc(CN3CCCCC3)oc2C1,-8.64%
6,COc1cccc(CNC(=O)CCOc2ccccc2C)c1,-10.3%
7,Cc1nc2ccccc2nc1NCc1nnc2n1CCC2,0.938%
8,CCCN1CCCC1Cn1nc(C)cc1C (stereo not drawn),-3.07%
9,Cc1nnsc1CN1C[C@H]2CC[C@@H]1CN(Cc1ccccc1)C2,-1.08%
10,Cc1ccc(C(=O)NCCS(=O)(=O)N2CCSCC2)n1C,-2.8%
11,O=C(NCCOc1ccccc1)Nc1cc(C(F)(F)F)c[nH]c1=O,-1.52%
12,CC(C)c1ncc2c(n1)CN(CC(=O)Nc1ccc(Cl)cn1)CC2,-10.8%
13,CCc1cc(C(=O)N2CCC(Nc3ccc(C)nn3)CC2)sc1C,-2.56%
14,Cn1cc(CN2CC[C@H](O)[C@@H]2Cc2ccccc2)cn1,-0.0718%
15,Cn1nc(COc2cccnc2)c2c1CCN(c1ncccn1)C2,-14.2%
16,Cc1cc(SC(C)(C)C)ccc1NCC(=O)NC(N)=O,-9.41%
17,CCC(CC)(CN)NC(C)c1ccccc1 (stereo not drawn),-7.08%
18,Cc1c(C(=O)NCCN2C(=O)CCC2=O)sc2ccc(F)cc12,2.84%
19,Clc1nc2ccccn2c1CNCC1CN(C2CC2)CCO1 (stereo not drawn),4.07%
20,COc1cc(N2C[C@@H]3COC[C@]3(C(=O)NCc3ccccn3)C2)ncn1,-3.03%
21,COc1cc(C(=O)NCCc2ccc(OC)c(OC)c2)on1,-2.98%
22,O=C(NC[C@H]1OC[C@@H]2CN(Cc3ccco3)CC[C@@H]21)c1cscn1,0.732%
23,CS(=O)(=O)N1CCC(C(=O)N2CCC3(CC2)OCCCO3)CC1,54.6%

row,Structure (SMILES),cytotoxicity at 70.5 h
1,O=C(N[C@@H]1CN(c2ncccn2)C[C@@H]2CCCO[C@@H]21)c1cnccn1,2.24%
2,Cc1nc(CN2CCN(C(=O)c3c(C)noc3C)CC2)cs1,-3.65%
3,CCN1CCC(c2nnc(CN3CCCC3)n2C2CC2)CC1,-9.82%
4,CCc1ccc(C(COC)NC(=O)c2ccc(C(N)=O)cc2)o1 (stereo not drawn),7.28%
5,COCCN1CCOCC12CCN(C(=O)Cc1cccs1)CC2,-6.94%
6,Cc1ncsc1CN1C[C@@H]2COC[C@]2(CNC(=O)c2ccco2)C1,-10.4%
7,CN1C[C@H]2C[C@H](C(=O)Nc3cccnc3)[C@@H](C1)O2,-11.1%
8,Cc1oc(-c2cccc(F)c2)nc1CN1CCOCS1(=O)=O,-11.9%
9,O=C([C@@H]1C[C@@H]2CCN(Cc3ccc4c(c3)OCO4)C[C@@H]2O1)N1CCCC1,-11.1%
10,Cc1nnc(C(C)Nc2cccc(COCCOC(C)C)c2)o1 (stereo not drawn),-1.57%
11,Cn1cc(CN2CCCN(C(=O)c3cn4ccccc4n3)CC2)cn1,-0.261%
12,CC(C)C(=O)N1CCC2(CC1)[C@@H]1CN(C(=O)N(C)C)C[C@@H]1C(=O)N2C,28.3%
13,COc1ccc(NC(=O)c2ccc(-n3ncc(C#N)c3N)cc2)cn1,3.5%
14,CCN(Cc1nc(COC)no1)Cc1cc2ccc(F)cc2[nH]c1=O,-12.1%
15,O=C(NCCCn1cccn1)NCC(c1ccco1)N1CCCC1 (stereo not drawn),-2.3%
16,OC1(CNCc2ccc(F)c(C(F)(F)F)c2)CCSCC1,-7.48%
17,N#Cc1ccccc1C(=O)N1C[C@@H](CN2CCCCCC2)[C@@H](CO)C1,-7.65%
18,CCN1C[C@H]2C3(CCN(C(=O)NC(C)C)CC3)CC[C@@]2(C(=O)N(C)C)C1,-8.21%
19,Cc1cnn(C2CCCN(C(=O)Cc3n[nH]c4ccccc34)C2)c1 (stereo not drawn),0.337%
20,CCOCCC(=O)Nc1cccc(Cl)c1COC,-2.76%
21,CC(C)(C)OC(=O)NCC1CCCCN1Cc1ccncc1 (stereo not drawn),-1.8%
22,O=C(CC1CC1)N1CCC2(CC1)CN(c1cccnc1)C(=O)CO2,-4.69%
23,Cc1nc(C(=O)NS(=O)(=O)c2cccc(C#N)c2)cs1,17.6%

row,Structure (SMILES),cytotoxicity at 70.5 h
1,CC(=O)Nc1nccn1Cc1ccccc1Cl,-2.67%
2,OC(CNC1CCOCC1)c1ccc(Cl)c(F)c1 (stereo not drawn),0.212%
3,O=S1(=O)c2cccnc2OC(Cc2ccccc2)CN1CC1CC1 (stereo not drawn),1.6%
4,Cc1ccc2c(C(=O)N(C)C)cc(-c3cnn(CCO)c3)nc2c1C,-3.4%
5,CN1CC[C@H]2[C@H](C[C@@H](CN3CCCC3)N2c2nccs2)C1,-3.73%
6,O=S(=O)(CCNCc1ccc2c(c1)CCO2)N1CCOCC1,12.8%
7,CCCC(=O)N(C)C(c1cccc(F)c1)c1ccccn1 (stereo not drawn),-3.08%
8,COc1cc(-n2ccnc2-c2ccc(C(=O)O)s2)ccc1NC(C)=O,-7.67%
9,CC(C)c1nnc2sc(CC3CN(Cc4ccccc4)CCO3)nn12 (stereo not drawn),6.69%
10,O=S(=O)(NCc1ccccc1)Nc1ccc(-n2cncn2)cc1,-5.87%
11,Nc1cc(-c2c[nH]nc2C2CCN(C(=O)C3CCCC3)C2)ccn1 (stereo not drawn),5.65%
12,Cc1ccc(C(=O)N2CCN(CCc3ccccc3)CC2)c(=O)[nH]1,-7.75%
13,Cc1cc(CCC(=O)N2CCC(O)CC2)ccc1Br,-0.947%
14,CCn1ncc2c1CCCC2NCc1ccccc1N1CCOCC1 (stereo not drawn),7.21%
15,Cc1cc(C(F)(F)F)nc(C2CCN(C(=O)CO)CC2)n1,-6.47%
16,Cc1cccc(NC(=O)CNC(=O)Cn2ncc(Cl)c(Cl)c2=O)c1C,4.71%
17,COCC1CN(C(=O)C2=CCCC2)Cc2cnn(CC3CC3)c21 (stereo not drawn),-2.82%
18,CN(C)S(=O)(=O)N1CC[C@H]2OCC[C@@]2(COc2cccnc2)C1,-12.5%
19,COCCNC(=O)Cn1c(-c2cccc(Cl)c2)nc(C)c(CCO)c1=O,0.393%
20,c1c[nH]c(-c2cn(CCSc3cnn[nH]3)nn2)n1,-11.9%
21,CC(=O)N1CCN(C(=O)c2cc(-n3cnnn3)ccc2Cl)CC1,24.6%
22,CCN(CCNS(=O)(=O)N1CCOCC1)C(=O)OC(C)(C)C,30.7%
23,CCOCC(=O)Nc1cc(C)cnc1OC,-3.98%

row,Structure (SMILES),cytotoxicity at 70.5 h
1,CN1CC(=O)N(c2ccccc2)CC12CCN(Cc1nccn1C)C2 (stereo not drawn),4.89%
2,COCC(=O)Nc1nn(Cc2ccc(F)cc2)cc1Cl,-5.91%
3,Cc1c(C(=O)N2CCSCC2)sc2nc(C(F)(F)F)ccc12,-9.06%
4,O=C(Nc1cccnc1-n1cncn1)C1CCC1,-22.6%
5,Cc1cc(NCc2cc(C)oc2C(F)(F)F)n2nc(C)cc2n1,-2.81%
6,O=C(O)c1cc(N2C[C@H](NC(=O)C3CCOCC3)[C@@H](C3CC3)C2)ccn1,-11.7%
7,CN(Cc1ccccc1)CC(O)Cn1cnc2c(Cl)cc(Cl)cc2c1=O (stereo not drawn),-9.03%
8,OCC1CCN(C[C@@H]2CN(C3Cc4ccccc4C3)C[C@@H]2CO)CC1,-4.9%
9,O=C(CCn1cc(Cl)cn1)N1CCC2(CC1)[C@H](O)C[C@@H]2OCCO,-1.08%
10,Cc1cnn(C2CN(CC(O)Cn3cccn3)C2)c1 (stereo not drawn),7.89%
11,Cc1cc2cc(C(=O)N[C@@H]3CC[C@@H](N4CCNC(=O)C4)[C@@H]3O)ccc2o1,-7.85%
12,CCc1ccc2occ(CC(=O)N3CCC4(CCCN(C)C4=O)C3)c2c1 (stereo not drawn),-9.34%
13,COC(=O)C(CNC(=O)Nc1cn[nH]c1)Cc1cccc(C)c1 (stereo not drawn),-0.383%
14,O=C(C1CCCO1)N1CCc2ncnc(NC3CCC3)c2CC1 (stereo not drawn),-15.3%
15,Cn1cncc1CN1CCCC1c1cncc(Oc2ccc(F)cc2)n1 (stereo not drawn),-10.5%
16,CC(C)Nc1oc(-c2ccc(S(=O)(=O)N(C)C)o2)nc1C#N,-8.63%
17,COCC1CC2(CCN(Cc3cnn(C)c3)CC2)CN1C(C)C (stereo not drawn),-15.8%
18,CCCNC(=O)c1cc2c(s1)CCN2c1ncccn1,3.12%
19,O=C(N1CCCC1)N1CCO[C@H]2[C@@H](Oc3ccccn3)CC[C@@H]21,-6.73%
20,CN(Cc1cccc(C#N)c1)c1ncc(C(N)=O)cc1Cl,-8.78%
21,Cc1ccc(OCC(O)CN2CCC(Cn3cccn3)CC2)cc1 (stereo not drawn),-1.48%
22,Cc1noc(CNC(=O)NCCc2ccc(Cl)cc2)n1,-3.31%
23,O=C(NCCn1cccn1)Nc1cc(C(=O)N2CCOCC2)ccc1Cl,-7.57%

row,Structure (SMILES),cytotoxicity at 70.5 h
1,CCc1noc(C2CCCCN2C(=O)c2cccnc2)n1 (stereo not drawn),-6.76%
2,CNS(=O)(=O)c1ccc(C)c(C(=O)NCCNc2ncccn2)c1,-14.9%
3,O=c1[nH]c(CN(Cc2ccco2)C2CCCC2)nc2ccccc12,5.19%
4,Cn1cc(C2CCCN2Cc2csc(-c3ccsc3)n2)cn1 (stereo not drawn),-0.271%
5,Cc1oncc1C(=O)N1CC[C@H]2[C@H](CO[C@@H]2CNS(C)(=O)=O)C1,-5.2%
6,CNC(=O)CCN(C)c1nc(-c2ccncc2)nc2c1CCNC2,-13.1%
7,CC(CNC(=O)N1CCC(CO)CC1)Cc1cccs1 (stereo not drawn),-3.99%
8,O=C(c1cc2c(s1)CCCCC2)N1CCC(c2ncc[nH]2)CC1,1.98%
9,CCN(CC1=CCN(C)CC1)C(=O)CCOC,-6.72%
10,OC(CN1CCOCC1)c1ccc(OC(F)(F)F)cc1 (stereo not drawn),-9.34%
11,CCOCC(=O)N1CCCn2c(CN3CCCCC3)nnc2C1,-1.12%
12,CCN(C)c1ncnc2c1CCN(Cc1ccsc1)CC2,0.529%
13,CCN1CCC2(CC1)CC(NC(=O)NC)c1cc(C)ccc12 (stereo not drawn),-6.74%
14,CC(=O)N1CCCN(C(=O)c2ccc(=O)n(C)c2)c2ccccc21,-2.79%
15,CN(C)CCN(Cc1ccc(C(F)(F)F)cc1)C(=O)c1cc[nH]n1,16.2%
16,COc1ccc(CNc2cccnc2-n2cccn2)c(OC)c1OC,-11.5%
17,CN(C)C(=O)c1n[nH]c2c1CN(CC1CCCCC1)C2,-2.71%
18,Cc1ccc(N2CCc3ncnc(N(C)C)c3CC2)nn1,-6.25%
19,NCc1ccnc(Oc2ccc(F)cc2)c1,-17%
20,COc1cc2c(cc1CNC(Cc1cccs1)c1nccs1)OCCO2 (stereo not drawn),-3.19%
21,CC(C)(C)c1nnc(CN2CCCC2c2noc(C3CC3)n2)o1 (stereo not drawn),-8.8%
